Earlier results in patent publication US9636407B2, “Caspofungin acetate formulations” (priority 2012, dated 2017).

Assays:
[1] = CANCIDAS prescribing information
[2] = background statement

## 1-[(4R,5S)-5-[(2-aminoethyl)amino]-N^2-(10,12-dimethyl-1-oxotetradecyl)-4-hydroxy-L-ornithine]-5-[(3R)-3-hydroxy-L-ornithine]pneumocandin B0 diacetate (salt) [caspofungin acetate]
[1]
  pH of a saturated solution in water: about 6.6
[2]
  oral bioavailability: poor
